Results published in PubChem BioAssay (NCI).
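1) Cells in 96-well plates. 2) Compound, 48 h, 5 concentrations. 3) Linear interpolation between surrounding doses. 4) Unreached endpoint = highest concentration. GI50 = concentration required for 50% inhibition of growth. The concentration for full growth arrest is given as TGI.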

Columns and labels:
Experiment in all cases: NCI anticancer screen, dose series, 48 h
A549 NSCLC = tested on: A549 NSCLC
MOLT-4 leukemia = tested on: MOLT-4 leukemia
SK-OV-3 ovarian = tested on: SK-OV-3 ovarian
MALME-3M melanoma = tested on: MALME-3M melanoma
M14 melanoma = tested on: M14 melanoma
SN12C renal = tested on: SN12C renal
SK-MEL-2 melanoma = tested on: SK-MEL-2 melanoma
UO-31 renal = tested on: UO-31 renal
SF-539 CNS = tested on: SF-539 CNS
HL-60(TB) leukemia = tested on: HL-60(TB) leukemia

Row | SMILES | GI50 (A549 NSCLC) | TGI (A549 NSCLC) | GI50 (MOLT-4 leukemia) | TGI (MOLT-4 leukemia) | GI50 (SK-OV-3 ovarian) | TGI (SK-OV-3 ovarian) | GI50 (MALME-3M melanoma) | TGI (MALME-3M melanoma) | GI50 (M14 melanoma) | TGI (M14 melanoma) | GI50 (SN12C renal) | TGI (SN12C renal) | GI50 (SK-MEL-2 melanoma) | TGI (SK-MEL-2 melanoma) | GI50 (UO-31 renal) | TGI (UO-31 renal) | GI50 (SF-539 CNS) | TGI (SF-539 CNS) | GI50 (HL-60(TB) leukemia) | TGI (HL-60(TB) leukemia)
1 | COc1cc[nH]c1/C=C1\C(=O)Nc2ccc(F)c(C#CC3(O)CCOCC3)c21 | 0.536 µM | 2.25 µM | 0.679 µM | 2.92 µM | 0.441 µM | > 25 µM | 1.22 µM | 5.81 µM | 0.664 µM | 4.28 µM | 0.615 µM | > 25 µM | 0.47 µM | 2.14 µM | 0.512 µM | > 6.99 µM | 0.489 µM | 1.03 µM | 0.686 µM | 1.6 µM
2 | COc1cc(C2C3=C(COC3=O)N(CCO)c3cc4c(cc32)CCC4)cc(OC)c1O (stereo not drawn) | 0.499 µM | > 32.5 µM | 0.52 µM | > 32.5 µM | 0.168 µM | > 32.5 µM | 0.104 µM | > 32.5 µM | 0.179 µM |  | 0.499 µM | > 32.5 µM | 0.0795 µM | 0.262 µM | 0.426 µM | > 32.5 µM | 0.136 µM | > 32.5 µM | 0.0874 µM | 0.448 µM
3 | COc1ccc2nc3ccc(OC)cc3c(SCCCN)c2c1 | 12.9 µM | 38.5 µM | 2.2 µM | 6.34 µM | 14.2 µM | 29.9 µM | 1.6 µM | 10.5 µM | 8.48 µM | 31.1 µM | 10.8 µM | 25.5 µM | 6.05 µM | 11.7 µM | 3.91 µM | 18.3 µM | 13.7 µM | 26.8 µM | 4.34 µM | 9.49 µM
4 | O=c1[nH]c(=O)n(C2CC(O)C(CO)O2)cc1C#Cc1ccc(C(F)(F)F)cc1 (stereo not drawn) |  | > 100 µM |  | > 100 µM |  | > 100 µM |  | > 100 µM |  | > 100 µM |  | > 100 µM |  | > 100 µM |  | > 100 µM |  | > 100 µM |  | > 100 µM
5 | CO[C@H]1C=C[C@]23c4cc5c(cc4CN(CC2O)[C@@H]3C1)OCO5 (stereo partly drawn) |  | 44.9 µM |  | 8.97 µM |  | 3.3 µM |  | 20.4 µM |  | > 100 µM |  | 29.4 µM |  | 6.31 µM |  | 8.47 µM |  | 14.6 µM |  | 0.32 µM
6 | CC1=CC2=C(C)C3(CC3)[C@@](C)(O)C(=O)C2=C1 |  | > 0.975 µM |  | > 1 µM |  | 0.799 µM |  | 0.424 µM |  | 0.393 µM |  | 0.557 µM |  | 0.365 µM |  | 0.337 µM |  | 0.47 µM |  | 0.587 µM
7 | N#Cc1c2c(c(N=[N+]=[N-])n3c1nc1ccccc13)CCCC2 |  | 17 µM |  | 5.37 µM |  | 3.64 µM |  | 5.96 µM |  | 3.48 µM |  | 4.22 µM |  | 3.58 µM |  | 4.55 µM |  | 3.66 µM |  | 8.6 µM
8 | COC(=O)c1cc(Nc2ccc(O)c3c2C(=O)c2c([N+](=O)[O-])ccc(O)c2C3=O)cc(C(=O)OC)c1 | 1.74 µM | 4.05 µM | 6.37 µM | > 100 µM | > 100 µM | > 100 µM | 2.75 µM | 6.39 µM | 3.15 µM | > 100 µM | 21.4 µM | > 100 µM | 4.05 µM | > 100 µM | 16.5 µM | > 100 µM | 60 µM | > 100 µM | 18.4 µM | 88.2 µM
9 | CCOP(=O)(OCC)/C(C#N)=C\c1cccc2ccccc12 |  | > 100 µM |  | > 100 µM |  | > 100 µM |  | > 100 µM |  | > 100 µM |  | > 100 µM |  | > 100 µM |  | > 100 µM |  | > 100 µM |  | > 62.8 µM
10 | CC1(CC(=O)O)OC2CCCCCC2O1 (stereo not drawn) (tested in a mixture with another compound) |  | > 100 µM |  | > 100 µM |  | > 100 µM |  | > 100 µM |  | > 100 µM |  | > 100 µM |  | > 100 µM |  | > 100 µM |  | > 100 µM |  | > 100 µM
11 | Clc1ccc2c(Cl)ncnc2c1 |  | > 100 µM |  | > 100 µM |  | > 100 µM |  | > 100 µM |  | > 100 µM |  | > 100 µM |  | > 100 µM |  | > 100 µM |  | > 100 µM |  | > 100 µM
12 | C/C(=C(/c1ccc(O)cc1)c1ccc(OCCN2CCCC2)cc1)c1ccccc1 | 3.53 µM | 11 µM | 2.94 µM | 11 µM | 3.25 µM | 13 µM | 1.7 µM | 3.41 µM | 1.88 µM | 4.08 µM | 9.17 µM | 25.7 µM | 1.97 µM | 3.95 µM | 1.87 µM | 5.72 µM | 1.81 µM | 3.76 µM | 2.04 µM | 4.97 µM
13 | CCOC(=O)c1cnc2[nH]c(=O)c3ccccc3n2c1=O |  | > 100 µM |  | > 100 µM |  | > 100 µM |  | > 100 µM |  | > 100 µM |  | > 100 µM |  | > 100 µM |  | > 100 µM |  | > 100 µM |  | > 100 µM
14 | Nc1ncnc2occ(-c3ccc(NC(=O)Nc4cc(C(F)(F)F)cc(C(F)(F)F)c4)cc3)c12 | 3 µM | 7.18 µM | 4.16 µM | 17.8 µM | 3.37 µM | 6.67 µM | 4.09 µM | 9.27 µM | 3.09 µM | 6.4 µM | 2.12 µM | 5.51 µM | 3.72 µM | 7.47 µM | 1.93 µM | 6.89 µM | 1.06 µM | 5.44 µM | 4.13 µM | 12.9 µM
15 | Cc1ccc(C2=Nc3c(N)ncnc3NC(c3cccc(Nc4ccnc5cc(C(F)(F)F)ccc45)c3)C2)cc1 (stereo not drawn) | 3.63 µM | 13.2 µM | 3.4 µM | > 100 µM | 5.93 µM | 51 µM | 3 µM | 23.1 µM | 2.11 µM | 5.29 µM | 4.77 µM | > 100 µM | 2.15 µM | 5.15 µM | 2.79 µM | 22.8 µM | 2.68 µM | 9.26 µM | 2.95 µM | 74.7 µM
16 | CCOC(=O)c1[nH]c2c(c1C)-c1[nH]c(=O)c(S(=O)(=O)c3ccccc3)cc1SC2 | 41.3 µM | > 100 µM | 15.7 µM | > 100 µM | 56.6 µM | > 100 µM | 36.4 µM | > 100 µM | 38.8 µM | > 100 µM | 93.6 µM | > 100 µM | 92.3 µM | > 100 µM | > 100 µM | > 100 µM | 30.6 µM | > 100 µM | 23.2 µM | > 100 µM
17 | Cc1cc(CS(=O)(=O)/C=C/c2ccccc2[N+](=O)[O-])c(CS(=O)(=O)/C=C/c2ccccc2[N+](=O)[O-])cc1C |  | > 100 µM |  | > 100 µM |  | 37.5 µM |  | > 100 µM |  | > 100 µM |  | > 100 µM |  | 36.5 µM |  | > 100 µM |  | 35.9 µM |  | > 100 µM
18 | CC(CS(=O)(=O)Cc1ccccc1)C(N)=O (stereo not drawn) |  | > 100 µM |  | > 100 µM |  | > 100 µM |  | > 100 µM |  | > 100 µM |  | > 100 µM |  | > 100 µM |  | > 100 µM |  | > 100 µM |  | > 100 µM
19 | N#CC1c2ccccc2-c2ccccc2N1C(=O)c1ccccc1 (stereo not drawn) | 2.97 µM | > 38.8 µM | 1.73 µM | > 100 µM | 4.36 µM | > 45.2 µM | 1.22 µM | 54.2 µM | 1.47 µM | 7.1 µM | 3.86 µM | > 92.2 µM | 2.78 µM | > 29.6 µM | 3.63 µM | > 59.4 µM | 2.29 µM | 7.05 µM | 0.337 µM | 
20 | Cc1ccc(NCSc2ccc(Cl)cc2)cc1 | 9.8 µM | > 100 µM | 6.15 µM | > 100 µM | 67 µM | > 100 µM | > 100 µM | > 100 µM | 77.1 µM | > 100 µM | 7.01 µM | > 100 µM | > 100 µM | > 100 µM | 1.65 µM | 30.8 µM | 22.9 µM | > 100 µM | 2.45 µM | > 100 µM
21 | COc1ccccc1Cn1cc2c(c1)-c1oncc1CC2 | 0.825 µM | > 75 µM | 0.477 µM | 14.8 µM | 0.46 µM | 8.44 µM | 1.41 µM | > 100 µM | 0.549 µM | > 41.9 µM | 0.728 µM | > 100 µM | 4.43 µM | 72.7 µM | 4.28 µM | 42.7 µM | 0.453 µM | 5.13 µM | 0.268 µM | 0.814 µM
22 | Cn1c(=O)c2c3oc(=O)cc(O)c3c(=O)n3c4ccccc4n(c1=O)c23 |  | > 100 µM |  | > 100 µM |  | > 100 µM |  | > 100 µM |  | > 100 µM |  | > 100 µM |  | 69 µM |  | > 100 µM |  | > 100 µM |  | 78.7 µM
23 | Cc1nn(-c2ccccc2)c2c1C1C(=C(c3ccc(Cl)cc3)N2)C(=O)Nc2ccccc21 (stereo not drawn) | 3.12 µM | > 100 µM | 2.85 µM | 8.9 µM | 6.43 µM | > 100 µM | 2.68 µM | 21.2 µM | 3.26 µM | 15.2 µM | 4.96 µM | 32.2 µM | 1.87 µM | 4.29 µM | 2.86 µM | 30.3 µM | 3.15 µM | 12.9 µM | 2.25 µM | 5.25 µM
